Results published in patent US7157432B2, “Tetraphenylbacteriochlorin derivatives and compositions containing the same” (San-Ei Gen F.F.I., Inc., priority 2000, dated 2007).

Tested on: HeLa cells
Assay: Phototoxicity test (MTT assay, viability of HeLa cells after irradiation)
Assay type: cell-based
Conditions: test compound 5 or 10 μM for two hours, 500 W halogen lamp with filter cutting off light shorter than 500 nm for 8 minutes, MTT after 24 hours
Experimental: Each of Compounds 1 to 16 was evaluated about its cytotoxicity by viability of HeLa cells using MTT assay (Carmichal, J., W. G. DeGraff, A. F. Gazdar, J. D. Minna and J. B. Mitchell, Cancer Res., 1987, 47, 936–942). HeLa cells (1×10^4 cells/well) were incubated in Dulbecco's modified Eagle's medium (DMEM) containing 10% fetal bovine serum (FBS) on a 96-well plate in 5% CO2 at 37° C. for 24 hours. After washing with phosphate buffered saline (PBS), the cells were incubated in DMEM without serum in the presence of each of the compounds to be tested (5 or 10 μM) for two hours. The cells were washed with PBS and irradiated with a 500 W halogen lamp equipped with a filter cutting off the light shorter than 500 nm wave length for 8 minutes. After 24 hours' incubation, the viability was measured by the MTT assay. HeLa cells without test compound were used as a control. […] The survival ratio of the cells is calculated by the following formula: Cell survival ratio (%)=(OD540 in presence of test compound with irradiation/OD540 in presence of test compound without irradiation)×100. A cell survival ratio of 100% means the absence of cytotoxicity.

Row | Compound | cytotoxicity when irradiated with light (cell survival ratio, FIG. 2)
1 | OC[C@H]1O[C@@H](Oc2cccc(-c3c4nc(c(-c5cccc(O[C@@H]6O[C@H](CO)[C@@H](O)[C@H](O)[C@H]6O)c5)c5ccc([nH]5)c(-c5cccc(O[C@@H]6O[C@H](CO)[C@@H](O)[C@H](O)[C@H]6O)c5)c5nc(c(-c6cccc(O[C@@H]7O[C@H](CO)[C@@H](O)[C@H](O)[C@H]7O)c6)c6ccc3[nH]6)CC5)CC4)c2)[C@H](O)[C@@H](O)[C@@H]1O [Compound 10, 5,10,15,20-tetrakis[3-(β-D-glucopyranosyloxy)phenyl]-bacteriochlorin] | exhibited cytotoxicity
2 | O[C@@H]1[C@H](Oc2cccc(-c3c4nc(c(-c5cccc(O[C@@H]6OC[C@@H](O)[C@@H](O)[C@@H]6O)c5)c5ccc([nH]5)c(-c5cccc(O[C@@H]6OC[C@@H](O)[C@@H](O)[C@@H]6O)c5)c5nc(c(-c6cccc(O[C@@H]7OC[C@@H](O)[C@@H](O)[C@@H]7O)c6)c6ccc3[nH]6)CC5)CC4)c2)OC[C@@H](O)[C@H]1O [Compound 14, 5,10,15,20-tetrakis[3-(β-D-arabinopyranosyloxy)phenyl]-bacteriochlorin] | exhibited cytotoxicity
3 | O[C@@H]1[C@@H](O)[C@H](Oc2cccc(-c3c4nc(c(-c5cccc(O[C@@H]6OC[C@@H](O)[C@H](O)[C@H]6O)c5)c5ccc([nH]5)c(-c5cccc(O[C@@H]6OC[C@@H](O)[C@H](O)[C@H]6O)c5)c5nc(c(-c6cccc(O[C@@H]7OC[C@@H](O)[C@H](O)[C@H]7O)c6)c6ccc3[nH]6)CC5)CC4)c2)OC[C@H]1O [Compound 16, 5,10,15,20-tetrakis[3-(β-D-xylopyranosyloxy)phenyl]bacteriochlorin] | exhibited cytotoxicity

Tested on: not listed separately
Assay: UV absorption in DMSO at 20° C.
Assay type: physicochemical
Conditions: FIG. 1
From the text: As clearly shown in FIG. 1, the compounds of the present invention have a strong UV absorption peak around 740 nm. Compounds 3 to 8 and 11 to 16 show an UV absorption pattern similar to that of tetraphenylbacteriochlorin and also have a strong UV absorption peak around 740 nm.

Row | Compound | strong UV absorption peak
4 | CC(=O)OC[C@H]1O[C@@H](Oc2ccc(-c3c4nc(c(-c5ccc(O[C@@H]6O[C@H](COC(C)=O)[C@@H](OC(C)=O)[C@H](OC(C)=O)[C@H]6OC(C)=O)cc5)c5ccc([nH]5)c(-c5ccc(O[C@@H]6O[C@H](COC(C)=O)[C@@H](OC(C)=O)[C@H](OC(C)=O)[C@H]6OC(C)=O)cc5)c5nc(c(-c6ccc(O[C@@H]7O[C@H](COC(C)=O)[C@@H](OC(C)=O)[C@H](OC(C)=O)[C@H]7OC(C)=O)cc6)c6ccc3[nH]6)CC5)CC4)cc2)[C@H](OC(C)=O)[C@@H](OC(C)=O)[C@@H]1OC(C)=O [Compound 1, 5,10,15,20-tetrakis[4-(2′,3′,4′,6′-tetra-O-acetyl-β-D-glucopyranosyloxy)phenyl]bacteriochlorin] | around 740 nm
5 | CC(=O)OC[C@H]1O[C@@H](Oc2cccc(-c3c4nc(c(-c5cccc(O[C@@H]6O[C@H](COC(C)=O)[C@@H](OC(C)=O)[C@H](OC(C)=O)[C@H]6OC(C)=O)c5)c5ccc([nH]5)c(-c5cccc(O[C@@H]6O[C@H](COC(C)=O)[C@@H](OC(C)=O)[C@H](OC(C)=O)[C@H]6OC(C)=O)c5)c5nc(c(-c6cccc(O[C@@H]7O[C@H](COC(C)=O)[C@@H](OC(C)=O)[C@H](OC(C)=O)[C@H]7OC(C)=O)c6)c6ccc3[nH]6)CC5)CC4)c2)[C@H](OC(C)=O)[C@@H](OC(C)=O)[C@@H]1OC(C)=O [Compound 2, 5,10,15,20-tetrakis[3-(2′,3′,4′,6′-tetra-O-acetyl-β-D-glucopyranosyloxy)phenyl]bacteriochlorin] | around 740 nm
6 | OC[C@H]1O[C@@H](Oc2ccc(-c3c4nc(c(-c5ccc(O[C@@H]6O[C@H](CO)[C@@H](O)[C@H](O)[C@H]6O)cc5)c5ccc([nH]5)c(-c5ccc(O[C@@H]6O[C@H](CO)[C@@H](O)[C@H](O)[C@H]6O)cc5)c5nc(c(-c6ccc(O[C@@H]7O[C@H](CO)[C@@H](O)[C@H](O)[C@H]7O)cc6)c6ccc3[nH]6)CC5)CC4)cc2)[C@H](O)[C@@H](O)[C@@H]1O [Compound 9, 5,10,15,20-tetrakis[4-(β-D-glucopyranosyloxy)phenyl]-bacteriochlorin] | around 740 nm
7 | OC[C@H]1O[C@@H](Oc2cccc(-c3c4nc(c(-c5cccc(O[C@@H]6O[C@H](CO)[C@@H](O)[C@H](O)[C@H]6O)c5)c5ccc([nH]5)c(-c5cccc(O[C@@H]6O[C@H](CO)[C@@H](O)[C@H](O)[C@H]6O)c5)c5nc(c(-c6cccc(O[C@@H]7O[C@H](CO)[C@@H](O)[C@H](O)[C@H]7O)c6)c6ccc3[nH]6)CC5)CC4)c2)[C@H](O)[C@@H](O)[C@@H]1O [Compound 10, 5,10,15,20-tetrakis[3-(β-D-glucopyranosyloxy)phenyl]-bacteriochlorin] | around 740 nm
